From ChEMBL document CHEMBL1144078, “Activity-guided isolation of triterpenoid acyl CoA cholesteryl acyl transferase (ACAT) inhibitors from Ilex kudincha” (J Nat Prod, 1999)

These compounds were tested against T1, Sterol O-acyltransferase 1 (Rattus norvegicus, UniProt O70536) (assay: Inhibition of rat liver microsomal ACAT).
T1 sequence (O70536 whole entry): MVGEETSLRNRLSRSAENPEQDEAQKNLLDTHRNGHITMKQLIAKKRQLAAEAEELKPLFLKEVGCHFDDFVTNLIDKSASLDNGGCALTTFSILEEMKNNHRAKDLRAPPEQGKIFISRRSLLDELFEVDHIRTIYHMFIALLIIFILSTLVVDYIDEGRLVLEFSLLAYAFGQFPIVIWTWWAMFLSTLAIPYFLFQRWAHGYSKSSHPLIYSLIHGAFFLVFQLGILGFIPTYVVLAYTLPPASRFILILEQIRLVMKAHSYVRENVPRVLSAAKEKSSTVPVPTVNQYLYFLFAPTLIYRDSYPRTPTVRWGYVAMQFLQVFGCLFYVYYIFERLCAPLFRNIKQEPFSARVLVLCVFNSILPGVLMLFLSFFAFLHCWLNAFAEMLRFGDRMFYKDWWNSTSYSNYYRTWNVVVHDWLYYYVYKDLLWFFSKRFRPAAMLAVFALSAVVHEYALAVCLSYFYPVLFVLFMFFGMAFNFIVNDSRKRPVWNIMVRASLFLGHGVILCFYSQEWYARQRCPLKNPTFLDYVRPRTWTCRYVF

Compound	IC50
C[C@H]1[C@H](C)CC[C@]2(C(=O)O)CC[C@]3(COC(=O)/C=C\c4ccc(O)cc4)C(=CC[C@@H]4[C@@]5(C)CC[C@H](O)[C@@](C)(CO)[C@@H]5CC[C@]43C)[C@H]12	194 µM
C=C1[C@@H](O)[C@H](O)C[C@]2(C)[C@H]3C=C[C@]45OC(=O)[C@@]6(CC[C@@H](C)[C@H](C)[C@H]64)CC[C@@]5(C)[C@]3(C)CC[C@@H]12 [ILEKUDINOL A]	154 µM
C=C(C)[C@@H]1CC[C@]2(CO)CC[C@]3(C)[C@H](CC[C@@H]4[C@@]5(C)CC[C@H](O)[C@](C)(CO)[C@@H]5CC[C@]43C)[C@@H]12 [ILEKUDINOL C]	328 µM
C=C1[C@@H](O)[C@H](O)C[C@]2(C)[C@H]3[C@@H]4O[C@@H]4[C@]45OC(=O)[C@@]6(CC[C@@H](C)[C@H](C)[C@H]64)CC[C@@]5(C)[C@]3(C)CC[C@@H]12 [ULMOIDOL]	468 µM

The next compounds have a lower IC50 than those just listed; values first:

IC50	Compound
73 µM	C[C@H]1[C@H](C)CC[C@]2(C(=O)O)CC[C@]3(COC(=O)/C=C/c4ccc(O)cc4)C(=CC[C@@H]4[C@@]5(C)CC[C@H](O)C(C)(C)[C@@H]5CC[C@]43C)[C@H]12
64 µM	C[C@H]1[C@H](C)CC[C@]2(C(=O)O)CC[C@]3(C)C(=CC[C@@H]4[C@@]5(C)CC[C@H](O)[C@@](C)(CO)[C@@H]5CC[C@]43C)[C@H]12
44 µM	C=C1[C@@H](O)[C@H](O)C[C@]2(C)[C@H]3CC=C4[C@@H]5[C@@H](C)[C@H](C)CC[C@]5(C(=O)O)CC[C@@]4(C)[C@]3(C)CC[C@@H]12 [ILEKUDINOL B]
